Measured values as given in the supplement of paper PMC10307832.

What was measured:
Experiment in all cases: relative viability (nuclei count vs DMSO), 5 days (fraction); higher = more cells survive
[1] = compound: CC(C)N(CCCNC(=O)Nc1ccc(C(C)(C)C)cc1)C[C@H]1O[C@@H](n2ccc3c(N)ncnc32)[C@H](O)[C@@H]1O + Cc1nc(Nc2ncc(C(=O)Nc3c(C)cccc3Cl)s2)cc(N2CCN(CCO)CC2)n1 [Dasatinib] (partner 0.075 µM)
How it was run: (§1)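 Medians of duplicate plates are given as relative viability. That measure is the nuclei count in treated wells divided by the count in vehicle wells. Counts were taken on 4× images of lung cancer cell lines in 1536-well plates, 5 days after pin-tool dosing the day after seeding with one drug alone or a fixed anchor-drug dose plus five library-drug doses (not always all listed) in √10 steps.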

[2] = compound: CC(C)N(CCCNC(=O)Nc1ccc(C(C)(C)C)cc1)C[C@H]1O[C@@H](n2ccc3c(N)ncnc32)[C@H](O)[C@@H]1O + NC(=O)Nc1cc(-c2cccc(F)c2)sc1C(=O)N[C@H]1CCCNC1 [AZD7762] (partner 0.2 µM)
How it was run: as §1

[3] = compound: CC(C)N(CCCNC(=O)Nc1ccc(C(C)(C)C)cc1)C[C@H]1O[C@@H](n2ccc3c(N)ncnc32)[C@H](O)[C@@H]1O + CCNC(=O)c1noc(-c2cc(C(C)C)c(O)cc2O)c1-c1ccc(CN2CCOCC2)cc1 [Luminespib] (partner 0.01 µM)
How it was run: as §1

[4] = compound: CC(C)N(CCCNC(=O)Nc1ccc(C(C)(C)C)cc1)C[C@H]1O[C@@H](n2ccc3c(N)ncnc32)[C@H](O)[C@@H]1O + CC1(C)CCC(c2ccc(Cl)cc2)=C(CN2CCN(c3ccc(C(=O)NS(=O)(=O)c4ccc(N[C@H](CCN5CCOCC5)CSc5ccccc5)c(S(=O)(=O)C(F)(F)F)c4)cc3)CC2)C1 [Navitoclax] (partner 0.5 µM)
How it was run: as §1

Cell Line | relative viability ([1]; first compound 0.08 µM) | relative viability ([1]; first compound 0.253 µM) | relative viability ([1]; first compound 0.8 µM) | relative viability ([1]; first compound 2.53 µM) | relative viability ([1]; first compound 8 µM) | relative viability ([2]; first compound 0.08 µM) | relative viability ([2]; first compound 0.253 µM) | relative viability ([2]; first compound 2.53 µM) | relative viability ([2]; first compound 8 µM) | relative viability ([3]; first compound 0.08 µM) | relative viability ([3]; first compound 0.253 µM) | relative viability ([3]; first compound 0.8 µM) | relative viability ([3]; first compound 2.53 µM) | relative viability ([3]; first compound 8 µM) | relative viability ([4]; first compound 0.08 µM) | relative viability ([4]; first compound 0.253 µM) | relative viability ([4]; first compound 0.8 µM) | relative viability ([4]; first compound 2.53 µM) | relative viability ([4]; first compound 8 µM) | relative viability ([2]; first compound 0.8 µM)
201T | 0.562 | 0.548 | 0.505 | 0.565 | 0.593 | 0.6 | 0.554 | 0.56 | 0.622 | 1.04 | 1.01 | 1.13 | 0.984 | 1.06 | 1.21 | 1.21 | 1.24 | 1.21 | 1.25 | –
A549 | – | – | – | – | – | – | – | – | – | – | – | – | – | – | 1.17 | 1.22 | 1.25 | 1.18 | 1.14 | –
A-427 | 0.671 | 0.644 | 0.641 | 0.61 | 0.594 | 0.79 | 0.682 | 0.699 | 0.711 | 0.889 | 0.875 | 1.03 | 0.884 | 0.817 | 0.917 | 0.941 | 0.875 | 0.969 | 0.925 | 0.735
ABC-1 | 0.62 | 0.599 | – | 0.712 | 0.524 | 0.933 | 0.954 | 1.02 | 0.729 | 0.676 | 0.802 | – | 0.635 | 0.583 | – | – | – | – | – | –
BEN | 0.29 | 0.347 | 0.312 | 0.314 | 0.312 | 0.736 | 0.746 | 0.598 | 0.795 | 0.347 | 0.461 | 0.282 | 0.442 | 0.303 | 0.0864 | 0.0543 | 0.0608 | 0.0499 | 0.0778 | 0.716
CAL-12T | 0.405 | 0.398 | 0.386 | 0.453 | 0.402 | 0.572 | 0.617 | 0.668 | 0.565 | 0.733 | 0.365 | 0.512 | 0.465 | 0.423 | 1.14 | 1.27 | 1.19 | 1.19 | 1.19 | 0.665
COR-L23 | 0.499 | 0.5 | 0.457 | 0.474 | 0.442 | – | – | – | – | 0.683 | 0.757 | 0.755 | 0.739 | 0.545 | 0.977 | 0.919 | 0.982 | 1.01 | 0.963 | –
COR-L 105 | 0.298 | 0.347 | 0.308 | 0.31 | 0.391 | – | – | – | – | 0.705 | 0.811 | 0.601 | 0.827 | 0.736 | 0.745 | 0.776 | 0.886 | 0.931 | 0.645 | –
Calu-6 | – | – | – | – | – | – | – | – | – | – | – | – | – | – | 0.887 | 0.87 | 0.848 | 0.902 | 0.841 | –
ChaGo-K-1 | 0.532 | 0.672 | 0.556 | 0.552 | 0.497 | 0.881 | 0.936 | 0.863 | 0.79 | 0.583 | 0.552 | 0.47 | 0.683 | 0.643 | 1.01 | 1.02 | 0.92 | 1.01 | 1.05 | 0.858
EBC-1 | – | – | – | – | – | – | – | – | – | – | – | – | – | – | 0.406 | 0.387 | 0.383 | 0.363 | 0.388 | –
EKVX | 0.571 | 0.502 | 0.509 | 0.517 | 0.524 | 0.7 | 0.716 | 0.767 | 0.621 | 0.758 | 0.847 | 0.838 | 0.909 | 0.846 | 0.905 | 0.974 | 0.976 | 0.95 | 0.915 | 0.702
EMC-BAC-2 | 0.349 | 0.36 | 0.297 | 0.359 | 0.37 | 1.08 | 1.1 | 1.03 | 0.979 | 1.16 | 1.15 | 1.22 | 1.24 | 1.13 | 1.14 | 1.15 | 1.13 | 1.14 | 1.08 | 1.08
EPLC-272H | 0.354 | 0.394 | 0.508 | 0.373 | 0.439 | 0.262 | 0.238 | 0.259 | 0.35 | 0.0863 | 0.265 | 0.268 | 0.46 | 0.232 | 1.03 | 0.981 | 0.989 | 1.12 | 1.02 | 0.21
H3255 | 0.507 | 0.354 | 0.434 | 0.282 | 0.367 | 0.922 | 0.864 | 0.823 | 0.678 | 0.875 | 0.892 | 0.876 | 0.838 | 0.837 | 0.518 | 0.555 | 0.545 | 0.367 | 0.551 | 0.827
HARA | 0.27 | 0.282 | 0.278 | 0.22 | 0.244 | 0.344 | 0.244 | 0.655 | 0.299 | 0.682 | 0.626 | 0.731 | 0.536 | 0.587 | 1.08 | 1.07 | 1.15 | 1.13 | 0.941 | 0.334
HCC-15 | 0.596 | 0.684 | 0.574 | 0.581 | 0.591 | 1.24 | 1.35 | 0.95 | 1.28 | 0.327 | 0.378 | 0.435 | 0.33 | 0.31 | 0.653 | 0.717 | 0.733 | 0.707 | 0.673 | –
HCC-44 | – | – | – | – | – | 1 | 1.1 | 1.04 | 0.929 | 0.972 | 1.06 | 1.1 | 1.15 | 1.03 | 0.952 | 1.1 | 0.915 | 0.961 | 1.03 | 0.897
HCC-78 | 0.485 | 0.311 | 0.466 | 0.308 | 0.32 | 0.613 | 0.519 | 0.576 | 0.64 | – | – | – | – | – | 0.704 | 0.646 | 0.607 | 0.784 | 0.839 | 0.583
